Article PMC8319579, “Aspergillomarasmine A inhibits metallo-β-lactamases by selectively sequestering Zn^2+” (The Journal of Biological Chemistry, 2021)

How the values were obtained:
New Delhi MBL-1 (NDM-1) [1] = biological target: T1, New Delhi MBL-1 (NDM-1) (Klebsiella pneumoniae, UniProt C7C422); assay: steady-state hydrolysis by purified NDM-1, absorbance at […] nm; format: biochemical
T1 construct: gene blaNDM-1; His6-SUMO tag removed

New Delhi MBL-1 (NDM-1) [2] = biological target: T1, New Delhi MBL-1 (NDM-1); assay: time-dependent covalent fluorescent labelling by SDS-PAGE; blocked by ZnSO4; format: binding

T1 sequence (C7C422 29-270 limits assumed): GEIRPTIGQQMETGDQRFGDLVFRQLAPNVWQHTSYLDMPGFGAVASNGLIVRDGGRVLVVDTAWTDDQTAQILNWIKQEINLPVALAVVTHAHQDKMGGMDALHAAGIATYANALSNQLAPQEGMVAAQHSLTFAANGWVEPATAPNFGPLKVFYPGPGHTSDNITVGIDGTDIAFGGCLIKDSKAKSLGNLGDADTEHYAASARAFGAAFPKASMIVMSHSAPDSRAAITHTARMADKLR

| Structure (SMILES) | steady-state hydrolysis by purified NDM-1, absorbance at 485 nm (New Delhi MBL-1 (NDM-1) [1]) | time-dependent covalent fluorescent labelling by SDS-PAGE; blocked by ZnSO4 (New Delhi MBL-1 (NDM-1) [2]) |
| --- | --- | --- |
| O=C(Cc1cccs1)N[C@@H]1C(=O)N2C(C(=O)O)=C(/C=C/c3ccc([N+](=O)[O-])cc3[N+](=O)[O-])CS[C@H]12 [nitrocefin] | we determined the steady-state kinetics of NDM-1–catalyzed hydrolysis of nitrocefin over fixed time intervals | – |
| CN(C)c1cccc2c(S(=O)(=O)NCCN3C(=O)C=CC3=O)cccc12 [DM, N-[2-(dansylamino)ethyl]maleimide] | – | NDM-1 showed time-dependent fluorescent labeling by DM in response to AMA (Fig. 4B). |
